Here are results for 28 molecules from PMC6882465, “Towards discovery of new leishmanicidal scaffolds able to inhibit Leishmania GSK-3” (Journal of Enzyme Inhibition and Medicinal Chemistry, 2019).

What is called EC50 is the midpoint of the concentration-response curve. As usually defined, the IC50 is the concentration at which inhibition is half-maximal.

Test [1] has as its system peritoneal murine macrophages (PMM). Description: Cytotoxicity on peritoneal murine macrophages (MTT). It is filed as cell-based, Balb/c mice. The conditions noted are these: 48 h.
Description: Peritoneal murine macrophages were obtained from 8-week-old Balb/c mice previously elicited by i.p. injection with 1 mL of 10% thioglycollate medium three days prior to extraction. Macrophages were obtained by peritoneal washing (10 mL PBS, 4 °C). After extraction, macrophages were maintained in RPMI 1640-HIFCS at 37 °C and 5% CO2.
For peritoneal macrophages, the cells were seeded in 96 microwell plates at 1 × 10^5 cells/well and incubated (37 °C, 5% CO2) with the drug for 48 h. The toxicity was evaluated by the inhibition of MTT reduction as above.
The target of test [2] is T1, LdGSK-3 (Leishmania donovani, UniProt A6N857). The experiment in a line: Inhibition of LdGSK-3 with Kinase Glo. It is filed as biochemical. The conditions noted are these: for % inhibition @ 10µM (initial screening on LdGSK3): Table S2; for percentage of inhibition of LdGSK-3: assayed at 10 µM; for LdGSK-3 % inhibition: @10 µM.
T1 sequence (A6N857 entry or part of it): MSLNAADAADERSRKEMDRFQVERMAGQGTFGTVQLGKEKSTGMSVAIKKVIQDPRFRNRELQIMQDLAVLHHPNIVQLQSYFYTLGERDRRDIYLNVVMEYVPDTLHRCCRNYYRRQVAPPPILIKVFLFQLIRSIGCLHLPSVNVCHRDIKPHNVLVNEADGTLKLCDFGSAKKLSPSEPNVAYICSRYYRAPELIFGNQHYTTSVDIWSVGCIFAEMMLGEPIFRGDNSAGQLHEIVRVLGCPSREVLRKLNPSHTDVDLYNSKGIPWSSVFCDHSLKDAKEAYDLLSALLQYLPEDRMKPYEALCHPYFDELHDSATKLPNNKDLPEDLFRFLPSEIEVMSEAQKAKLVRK
Description: Assessment of inhibition of LdGSK-3 with Kinase Glo^TM
The reaction was allowed to proceed for 30 min at 30 °C, then it was incubated at room temperature for another 10 min after addition of Kinase Glo reagents (Promega, Ref. V6712). ATP consumption by LdGSK-3 was measured indirectly through end-point luminescence measurement of each well in a Varioskan Flash microplate reader (Thermo).
The target of test [3] is T2, hGSK-3β (Homo sapiens, UniProt P49841). The note with it: Table S1, cited from earlier work.
T2 sequence (P49841 whole entry): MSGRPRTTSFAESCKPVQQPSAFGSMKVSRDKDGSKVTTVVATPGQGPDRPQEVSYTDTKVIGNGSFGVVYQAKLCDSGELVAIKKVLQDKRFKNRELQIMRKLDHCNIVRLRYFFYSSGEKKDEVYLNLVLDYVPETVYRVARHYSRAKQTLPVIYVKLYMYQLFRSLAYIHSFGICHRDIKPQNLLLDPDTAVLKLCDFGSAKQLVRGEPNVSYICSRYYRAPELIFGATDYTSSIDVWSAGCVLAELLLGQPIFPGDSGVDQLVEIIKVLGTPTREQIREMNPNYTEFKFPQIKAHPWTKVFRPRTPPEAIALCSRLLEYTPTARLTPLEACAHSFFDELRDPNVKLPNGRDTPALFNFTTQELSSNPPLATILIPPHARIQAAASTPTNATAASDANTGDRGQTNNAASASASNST
For test [4], the system named is L. infantum promastigotes. The experiment in a line: Leishmanicidal assay on promastigotes (inhibition of MTT reduction). It is filed as cell-based, Leishmania infantum. The conditions noted are these: 72 h. As to the method: (§1) Leishmania parasites were resuspended with the corresponding drug concentration at 2 × 10^6 parasites/mL (final concentration) in their respective growth media in 96 microwell plates (200 µL/well). The parasites were allowed to growth for 72 h at 26 °C for promastigotes and 96 h at 32 °C for axenic amastigotes. Afterwards, inhibition of proliferation was measured by the inhibition of MTT reduction by the parasites. […] MTT reduction was allowed to proceed for 2 h at the respective temperature, and the resulting formazan solubilised by addition of 50 µL/well of 10% SDS. Afterwards, the plate was read at 595 nm in a BioRad Microplate-reader, model 680. Samples were made by triplicate and assays were repeated at least twice.
In general terms: Tetrazolium dyes change colour on reduction, which living cells bring about.

Test [5] has as its system L. pifanoi axenic amastigotes. Description: Leishmanicidal assay on axenic amastigotes (inhibition of MTT reduction). The conditions noted are these: 96 h, read-out: L. pifanoi amast. ax EC50. The test is classed as cell-based, Leishmania pifanoi. As to the method: as §1
The target in test [6] is T2, hGSK-3β. The experiment in a line: hGSK-3β inhibition. The test is classed as biochemical.
The target in test [7] is T1, LdGSK-3. Set-up: method as in PMID 19445946. The note with it: cited from earlier work.
[8] abbreviates: Table S1, read-out: LdGSK-3 IC50.
The mark [9] stands for this setting: Table 2, read-out: LdGSK-3 IC50.

Read-outs that look alike come from different tables or passages of the source.

As to `O=C(CCl)c1cc(Cl)sc1Cl` [Compound 8], the figures for the EC50 in test [1] (Table S1), in test [4] (Table S1) and in test [5] (Table S1) were 3.6 ± 0.5 µM, 4.4 ± 0.1 µM and 2.4 ± 0.4 µM, respectively. Besides, the IC50 at LdGSK-3 [2] (setting [8]) is 10.3 ± 2 µM; on hGSK-3β [3] (ref 4 (supplement)) it was 5 µM.
Regarding `O=C(CCl)c1cc(Br)c(Br)s1` [Compound 10], the results for the EC50 in test [1] (Table S1), in test [4] (Table S1) and in test [5] (Table S1) were 7.9 ± 0.6 µM, 8.6 ± 0.3 µM and 1.2 ± 0.2 µM, respectively. Also, the IC50 on LdGSK-3 [2] (setting [8]) is 3 ± 0.4 µM.
With `CN(C)S(=O)(=O)c1ccc(-c2cnc(N)c(-c3nc4ccc(F)cc4[nH]3)c2)cc1` [Compound 71], the values for the IC50 on LdGSK-3 [2] (setting [9]) and against hGSK-3β [6] (Table 2) were 3.6 µM and 1.23 ± 0.14 µM, respectively. In addition, at LdGSK-3 [2], the “% inhibition @ 10µM (initial screening on LdGSK3)” value (from here on “% inhibition @ 10µM”) was found to be 74.63±1.76%. Moreover, the “percentage of inhibition of LdGSK-3” value on LdGSK-3 [2] was “higher than 50%”.
Turning to `CCCCCCCC(=O)NNC(=O)c1c(O)c2ccccc2n(C)c1=O` [Compound 12], on LdGSK-3 [2] (Table S1), the LdGSK-3 % inhibition was below 20%. Besides, the half-maximal inhibitory concentration (IC50) on hGSK-3β [3] (ref 7 (supplement)) was 8.7 ± 0.4 µM. Moreover, the EC50 in test [4] (Table S1) is above 50 µM; in test [5] (Table S1), 20.8 µM.
Regarding `Cc1ccc(S(C)(=O)=O)cc1Nc1nccc(-c2sc(N)nc2-c2ccccc2)n1` [Compound 124], the IC50 at LdGSK-3 [2] (setting [9]) stood at 6 µM. In addition, on LdGSK-3 [2], the “% inhibition @ 10µM” value is 70.59±3.12% and the “percentage of inhibition of LdGSK-3” value is recorded as “higher than 50%”. Moreover, at hGSK-3β [6] (Table 2), the IC50 came to 0.81 ± 0.34 µM.
Molecule `COc1ccc(CNC(=O)Nc2nc(C)c(C(=O)C(Br)Br)s2)cc1` [Compound 20] had a LdGSK-3 % inhibition on LdGSK-3 [2] (Table S1) below 20%. Besides, the midpoint of inhibition against hGSK-3β [6] (Table S1, reference not given), the IC50, lay at 6.22 ± 0.2 µM. Further, the 50% effective concentration (EC50) in test [4] (Table S1) and in test [5] (Table S1) was above 50 µM throughout.
Regarding `N#Cc1cc(-c2ccnc(Nc3cccc(CN4CCOCC4)c3)n2)ccc1NCCN` [Compound 128], the IC50 on LdGSK-3 [2] (setting [9]) came out at 1.7 µM; against hGSK-3β [6] (Table 2), 1.32 ± 0.35 µM. In addition, the “% inhibition @ 10µM” value at LdGSK-3 [2] is recorded as 99.46±0.78%. The “percentage of inhibition of LdGSK-3” value on LdGSK-3 [2] is recorded as “higher than 50%”.
With `CC(=O)Nc1ccc(-c2cnc(N)c(-c3nc4ccc(F)cc4[nH]3)c2)cc1` [Compound 187], the IC50 on LdGSK-3 [2] (setting [9]) came out at 9.1 µM; against hGSK-3β [6] (Table 2), 1.22 ± 0.43 µM. Moreover, the “% inhibition @ 10µM” value at LdGSK-3 [2] was 67.81±1.17%. Besides, the “percentage of inhibition of LdGSK-3” value on LdGSK-3 [2] is given as “higher than 50%”.
With `CC(=O)C1=C(c2c[nH]c3ccccc23)C(=O)NC1=O` [Compound 16], the EC50 is above 50 µM in test [1] (Table S1), above 50 µM in test [4] (Table S1) and 2.5 ± 2.7 µM in test [5] (Table S1). Also, the LdGSK-3 % inhibition at LdGSK-3 [2] (Table S1) was below 20%. The IC50 on hGSK-3β [3] (ref 8 (supplement)) was 4.47 ± 0.35 µM.
As to `O=C(CCl)c1ccc(Br)s1` [Compound 6], the EC50 in test [1] (Table S1) was 6.8 ± 0.4 µM; in test [4] (Table S1), 0.9 ± 0.1 µM; in test [5] (Table S1), 1.7 ± 0.1 µM. Further, the concentration for half-maximal inhibition (IC50) is 12.5 ± 2.4 µM on LdGSK-3 [2] (setting [8]) and 10 µM at hGSK-3β [3] (ref 4 (supplement)).
Regarding `COc1ccc(CNC(=O)Nc2nc(C)c(C(C)=O)s2)cc1` [Compound 18], the LdGSK-3 % inhibition at LdGSK-3 [2] (Table S1) is listed as below 20%. Besides, the EC50 in test [4] (Table S1) and in test [5] (Table S1) was above 50 µM each time.
The molecule `CCOC(=O)c1sc(NC(=O)CCc2cc(OC)c(OC)c(OC)c2)nc1C` [Compound 22] displayed a LdGSK-3 % inhibition at LdGSK-3 [2] (Table S1) below 20%. At hGSK-3β [6] (Table S1, reference not given), the IC50 is 7.04 ± 0.27 µM. The EC50 in test [4] (Table S1) and in test [5] (Table S1) was above 50 µM each time.
For the molecule `O=S(=O)(c1cccc(CSc2nnc(-c3ccc4c(c3)OCO4)o2)c1)N1CCOCC1` [Compound 151], the results for the IC50 on LdGSK-3 [2] (setting [9]) and at hGSK-3β [6] (Table 2) were 2.54 ± 0.48 µM and 0.02 ± 0.01 µM, respectively. Also, the “% inhibition @ 10µM” value on LdGSK-3 [2] is given as 61.89±2.34%. Moreover, the “percentage of inhibition of LdGSK-3” value at LdGSK-3 [2] was “higher than 50%”.
`COc1cccc(CC(=O)Nc2nc3ccc(OC)cc3s2)c1` [Compound 24] showed a LdGSK-3 % inhibition on LdGSK-3 [2] (Table S1) below 20%. At hGSK-3β [6] (Table S1, reference not given), this molecule returned an IC50 of 7.33 ± 0.15 µM. Moreover, the EC50 in test [4] (Table S1) and in test [5] (Table S1) was above 50 µM throughout.
With `Cc1cc2c(cc1Br)NC(=O)C2=C1Nc2ccccc2C1=NO` [6-bromo-5-methylindirubin-3'-oxime], the “LdGSK-3 inhibition (in words)” value at LdGSK-3 [7] is listed as “inhibited”.
With `O=C(CCl)c1ccc(Cl)cc1` [Compound 7], the EC50 in test [1] (Table S1) worked out at 7.3 ± 1 µM; in test [4] (Table S1), 6.6 ± 0.5 µM; in test [5] (Table S1) it was 0.5 ± 0.1 µM. The 50% inhibitory concentration (IC50) on LdGSK-3 [2] (setting [8]) was found to be 7.5 ± 1.4 µM.
In the case of `CCOC(=O)c1sc(NC(=O)CCc2cccc(Cl)c2)nc1C` [Compound 21], the LdGSK-3 % inhibition on LdGSK-3 [2] (Table S1) is below 20%. Besides, inhibition on hGSK-3β [6] (Table S1, reference not given) was half-maximal at 7.23 ± 0.26 µM (IC50). Moreover, the EC50 in test [4] (Table S1) and in test [5] (Table S1) was above 50 µM each time.
With `CN(C)Cc1cccc(Nc2nccc(-c3ccc(NCCN)c(C#N)c3)n2)c1` [Compound 119], at LdGSK-3 [2] (setting [9]), the IC50 was 0.27 µM. On LdGSK-3 [2], the “% inhibition @ 10µM” value is 100.29±1.24% and the “percentage of inhibition of LdGSK-3” value was “higher than 50%”. Further, the IC50 on hGSK-3β [6] (Table 2) was 0.24 ± 0.04 µM.
In the case of `COc1ccc(CNC(=O)Nc2nc(C)c(C(=O)CBr)s2)cc1` [Compound 19], the EC50 was 32 ± 3.1 µM in test [1] (Table S1), above 25 µM in test [4] (Table S1) and 14.4 ± 2.6 µM in test [5] (Table S1). The molecule also returned a LdGSK-3 % inhibition on LdGSK-3 [2] (Table S1) below 20%. Also, 9.72 ± 0.57 µM corresponded to half-maximal inhibition against hGSK-3β [6] (Table S1, reference not given) (IC50).
`COc1ccc(Nc2nccc(N(C)c3n[nH]c4c(F)cccc34)n2)cc1S(C)(=O)=O` [Compound 95]: the IC50 on LdGSK-3 [2] (setting [9]) is 0.46 ± 0.07 µM. Also, at LdGSK-3 [2], the “% inhibition @ 10µM” value is given as 90.25±1.12% and the “percentage of inhibition of LdGSK-3” value is reported as “higher than 50%”. This molecule displayed an IC50 on hGSK-3β [6] (Table 2) of 1.4 ± 0.25 µM.
As for `O=C(CBr)C1=C(c2c[nH]c3ccccc23)C(=O)NC1=O` [Compound 15], the IC50 was 17.7 ± 2.7 µM at LdGSK-3 [2] (setting [8]) and 0.047 ± 0.007 µM at hGSK-3β [3] (ref 8 (supplement)). In addition, the EC50 in test [4] (Table S1) and in test [5] (Table S1) was above 50 µM throughout.
Turning to `O=c1sn(-c2cccc3ccccc23)c(=O)n1Cc1ccccc1` [Compound 2, tideglusib], the EC50 in test [1] (Mus musculus, Macrophage, Table 1) is above 50 µM; in test [4] (Leishmania infantum, Table 1) it was 17.6 ± 2.3 µM; in test [5] (Leishmania pifanoi, Table 1) it was 7.1 ± 1.8 µM. At LdGSK-3 [2], this molecule yielded an IC50 of 0.32 ± 0.05 µM.
As for `O=C(Cc1cccc(Cl)c1)Nc1nc2ccc(C(F)(F)F)cc2s1` [Compound 23], the LdGSK-3 % inhibition on LdGSK-3 [2] (Table S1) is given as below 20%. At hGSK-3β [6] (Table S1, reference not given), half-maximal inhibition (IC50) was put at 9.75 ± 0.26 µM. For the same molecule, the EC50 in test [4] (Table S1) and in test [5] (Table S1) was above 50 µM each time.
For `COc1ccc(-n2cnc3cc(C(=O)CBr)ccc32)cc1` [Compound 17], the EC50 in test [1] (Table S1) was above 25 µM; in test [4] (Table S1), 3.4 ± 0.5 µM; in test [5] (Table S1), 4.5 ± 0.2 µM. On LdGSK-3 [2] (Table S1), this molecule had a LdGSK-3 % inhibition of 35.5%. For the same molecule, the IC50 on hGSK-3β [3] (ref 8 (supplement)) was 0.58 ± 0.07 µM.
In the case of `CC(c1cc(Cl)cc(Cl)c1)N(C)c1ncc2c(N)nc(N)nc2n1` (centres unmarked) [Compound 75], the “% inhibition @ 10µM” value on LdGSK-3 [2] turned out to be 10.05±1.10%.
In the case of `CC1CN(Cc2ccc(C#N)cc2)CCN1c1ccc(NC(=O)c2ccccc2F)cc1.O=C(O)C(F)(F)F.O=C(O)C(F)(F)F` (centres unmarked) [Compound 199], the “% inhibition @ 10µM” value at LdGSK-3 [2] was 8.70±1.75%.
Still for that read-out and setting: the result for `COc1ccccc1C1CC(c2ccc(NS(C)(=O)=O)cc2)=NN1C(=O)c1cccs1` (centres unmarked) [Compound 195] reads 16.55±4.05%.
Consider `NC(=O)c1cc(NC(=O)c2ccccc2COc2ccccc2)ccc1Cl` [Compound 105], for which the “% inhibition @ 10µM” value at LdGSK-3 [2] was -0.45±1.10%.
